Experimental data as given in patent publication US20030229137A1, “Methods of inhibiting osteoclast activity” (priority 2001, published 2003).

Assays:
[1] = tested on: osteoclast formation from PBMC; assay: in vitro osteoclast formation assay (RANKL/M-CSF, MTS/TRAP); assay type: cell-based; conditions: for IC50: Osteoclast, read-out: IC50 (osteoclast formation inhibition); for suppression of osteoclast formation under the test conditions (in words): Table 1 experiments
Description: Each of the kavalactones isolated in Example 1 was studied in an in vitro osteoclast formation assay. The protocol used (essentially that described in T. Yoneda et al., Endocrinology, 129(2):683-689 (1991) and H. Zhou et al., J Biol. Chem., 272, 14926 (2001)) is as follows:
(A) Osteoclast Formation Culture
1) Prepare assay wells (n=4) for each dilution of a test compound in a 384-plate. Each well contains 25 μl of 2× conc. of the compound in 10% FBS-media/0.5% DMSO.
2) Suspend PBMC in 10% FBS-media supplemented with 40 ng/ml of RANKL and 20 ng/ml of human M-CSF at 1.5 M cells/ml.
3) Vortex cell suspension and filtrate through mesh filter to remove cell aggregates.
4) Inoculate 25 μl of cell suspension to each well.
5) Centrifuge the assay plate at 1500 rpm (˜700 g) for 1 min.
6) Start osteoclast formation culture in a 5% CO2-incubator.
7) After 48 h of the culture, replenish 10 μl of 10% FBS-media supplemented with 120 ng/ml of RANKL and 60 ng/ml of M-CSF. Continue the culture until multiple osteoclasts are visible in control wells (up to 4˜5 days).
1) Add 6 μl of MTS reagent to each well and further incubate 1˜2 hrs.
2) Measure absorbance at 490 nm.
3) Discard MTS/culture media and fix cells in 60% acetone/0.38 M citrate buffer, pH 5.4 for 30 sec. Rinse cells with MQ once and air-dried.
4) Incubate each well in 25 μl of 5 mM p-nitrophenyl phosphate/tartrate/acetic acid solution for 2˜3 hrs (divert buffers from acid phosphate, leukocyte kit from Sigma #386-A).
5) Measure absorbance at 405 nm.
6) Discard p-nitrophenyl phosphate solution, rinse wells with MQ and stain cells with the acid phosphate, leukocyte kit.
7) Count multinucleate (>3) TRAP#-positive cell number under microscope. # Tartarate Resistant Acid Phosphatase

[2] = tested on: AA-stimulated aggregation in human platelets; conditions: applied five minutes before AA; cited from earlier work
[3] = tested on: synthesis of PGE2 in human platelets; conditions: applied five minutes before AA; cited from earlier work
[4] = tested on: ATP release in human platelets; conditions: applied five minutes before AA; cited from earlier work
[5] = tested on: synthesis of TXA2 in human platelets; conditions: applied five minutes before AA; cited from earlier work
[6] = protocol of Example 2, PBMC with RANKL and M-CSF

C=CC[C@@H]1/C=C(\C)C[C@H](C)C[C@H](OC)[C@H]2O[C@@](O)(C(=O)C(=O)N3CCCC[C@H]3C(=O)O[C@H](/C(C)=C/[C@@H]3CC[C@@H](O)[C@H](OC)C3)[C@H](C)[C@@H](O)CC1=O)[C@H](C)C[C@@H]2OC [FK506, reference compound]
IC50 [1, 6]: > 25 µg/mL

COc1ccc(/C=C/c2cc(OC)cc(=O)o2)cc1 [yangonin]
relative osteoclast formation inhibitory activity among the six kavalactones [1]: relatively higher osteoclast formation inhibitory activity
IC50 [1, 6]: 8 µM
inhibition of osteoclasts ([1]; at 10 μM): almost complete inhibition

COc1cc(/C=C/c2ccccc2)oc(=O)c1 [desmethoxyyangonin]
IC50 [1, 6]: 32 µM

COC1=CC(=O)O[C@@H](/C=C/c2ccccc2)C1 [(+)-kawain]
IC50 [2]: 78 µM
IC50 [3]: 86 µM
IC50 [4]: 115 µM
IC50 [5]: 71 µM

COC1=CC(=O)O[C@@H](CCc2ccc3c(c2)OCO3)C1 [dihydromethysticin]
IC50 [1, 6]: 13 µM

COC1=CC(=O)O[C@@H](/C=C/c2ccccc2)C1 [kawain]
IC50 [1, 6]: 28 µM

CC/C(=C(\c1ccccc1)c1ccc(OCCN(C)C)cc1)c1ccccc1 [tamoxifen, reference compound]
suppression of osteoclast formation under the test conditions (in words) [1]: showed consistent activity

Cc1ccc(-c2cc(C(F)(F)F)nn2-c2ccc(S(N)(=O)=O)cc2)cc1 [celecoxib, reference compound]
IC50 [1, 6]: > 100 µM

IL-4: endogeneous osteoclast formation inhibitor, control compound
suppression of osteoclast formation under the test conditions (in words) [1]: showed consistent activity
IC50 (osteoclast formation inhibition) [1, 6]: <0.001 µg/mL

COC1=CC(=O)O[C@@H](/C=C/c2ccc3c(c2)OCO3)C1 [methysticin]
relative osteoclast formation inhibitory activity among the six kavalactones [1]: relatively higher osteoclast formation inhibitory activity
IC50 [1, 6]: 13 µM
inhibition of osteoclasts ([1]; at 15 μM): almost complete inhibition

CC(=O)Oc1ccccc1C(=O)O [aspirin, reference compound]
IC50 [1, 6]: > 100 µM
suppression of osteoclast formation under the test conditions (in words) [1]: do not suppress osteoclast formation
inhibition of osteoclasts ([1]; at 25 μM): no inhibition

COC1=CC(=O)O[C@@H](CCc2ccccc2)C1 [dihydrokawain]
relative osteoclast formation inhibitory activity among the six kavalactones [1]: relatively higher osteoclast formation inhibitory activity
IC50 [1, 6]: 10 µM
inhibition of osteoclasts ([1]; at 15 μM): almost complete inhibition
